Measured values reported in patent US20100286406A1, “1,3- DIALKYLBENZIMIDAZOLE HALOGENIDES EXHIBITING REGENERATIVE, ANTI-INFLAMMATORY, AND ANTIMICROBIAL ACTIVITY” (priority 2007, published 2010).

Test system: burn caused by light radiation
Assay: Light radiation burn model, epithelization of burn wounds (regenerative activity)
Assay type: in vivo
Source text: The regenerative activity of the claimed compounds was studied on a model of a burn caused by light radiation on a specialized apparatus. […] Unless this medication is applied to a burn, a keloidal scar is produced on the burn area and no skin appendages are formed.

SMILES: CC(C)(CO)C(O)C(=O)NCCCO (centres unmarked) [Panthenol, 2,4-dioxy-N-(3-oxypropyl)-3,3-dimethylbutyramide]
- Percentage of fully epithelized burn wounds (25th day of observations): 55%
- Percentage of fully epithelized burn wounds (30th day of observations): 85%
